From US6057419A, “Cascade polymer complexes, process for producing the same and pharmaceuticals containing the same” (Schering Aktiengesellschaft, priority 1995, dated 2000)

What was measured:
[1] = in vivo; cited from earlier work
[2] = In vivo comparison with an extracellular contrast medium: blood concentrations and pharmacokinetics in rats (ICP-AES, Topfit program); conditions: rats (n=3), i.v.
Procedure: The suitability of the compound described in Example 1l as a blood-pool agent is shown in the following test.
As test animals, three male (Schering-SPF) rats that are 200-250 g in weight are used. 0.2 ml (respectively 25 mmol/L) of the following contrast medium solution per animal is administered intravenously: mixture of 1 part each of the compound of 1l, named compound 1 below, and the dysprosium complex of 3,6,9-triaza-3,6,9-tris(carboxymethyl)-undecanedioicacid (Dy-DTPA), named compound 2 below. Blood samples are taken with a catheter in the common carotid artery at the following times: 1, 3, 5, 10, 15, 20, 30, 45, 60, 90, 120 minutes p.i. In the blood samples obtained, the concentrations of gadolinium (Gd) and dysprosium (Dy) are measured with the aid of atomic emission spectrometry (ICP-AES) in each case in a parallel manner. The portion of the injected contrast medium of compound 1 (Gd) and compound 2 (Dy, comparison substance), remaining in the blood space, can be compared in the same animals by the different marking. The a- and b-half-lives, the volume of distribution as well as the total clearance can be calculated from the blood concentrations with the aid of special software (Topfit program).
Measured blood concentrations of Gd (compound 1) and Dy (compound 2) in rats (n=3)

[3] = cited from earlier work
[4] = excretion tests in rats; cited from earlier work

CNC[C@H](O)[C@@H](O)[C@H](O)[C@H](O)CO.CNC[C@H](O)[C@@H](O)[C@H](O)[C@H](O)CO.O=C([O-])CN(CCN(CC(=O)[O-])CC(=O)O)CCN(CC(=O)[O-])CC(=O)O.[Gd+3] [Magnevist]
dispersion space (entire extracellular space: intravascular space and interstitium) [1]: about 20 % of the volume of the body

CC(O)CN1CCN(CC(=O)[O-])CCN(CC(=O)[O-])CCN(CC(=O)[O-])CC1.[Gd+3] (stereo not shown) [Pro Hance]
dispersion space (entire extracellular space: intravascular space and interstitium) [1]: about 20 % of the volume of the body

dysprosium complex of 3,6,9-triaza-3,6,9-tris(carboxymethyl)-undecanedioicacid [Compound 2, reference compound]
Vd ss (volume of distribution) [2]: 0.41 ± 0.04 L/kg | α-t1/2 ([2]; blood): 1.5 ± 0.5 min | β-t1/2 ([2]; blood): 19.2 ± 2.5 min

CNC(=O)CN(CCN(CCN(CC(=O)[O-])CC(=O)NC)CC(=O)[O-])CC(=O)[O-].[Gd+3] [Omniscan]
dispersion space (entire extracellular space: intravascular space and interstitium) [1]: about 20 % of the volume of the body

albumin-GdDTPA
concentration in the liver tissue ([3]; 24 h after intravenous injection in rats): ~30 % of the dose | dose eliminated ([3]; in 24 hours, rats, i.v.): 20 % of the dose

COCC(=O)Nc1c(I)c(C(=O)NCC(O)CO)c(I)c(C(=O)N(C)CC(O)CO)c1I (stereo not shown) [Ultravist]
dispersion space (entire extracellular space: intravascular space and interstitium) [1]: about 20 % of the volume of the body

polylysine-GdDTPA
excretion (in words) [4]: excreted unchanged by glomerular filtration through the kidneys
